Test results from patent US11306064B2, “Benzothia(di)azepine compounds and their use as bile acid modulators” (Albireo AB, priority 2018, dated 2022).
One block for each compound: values may come before it.

Tests used:
Type in all cases: cell-based
Human LBAT = target: T1, Human LBAT (Homo sapiens, UniProt Q14973); assay: LBAT (h/m) assay: 3H-taurocholic acid uptake in human LBAT-overexpressing cells; conditions: 0.3 μM 3H-taurocholic acid and 7.5 μM cold taurocholic acid, 20 minutes, read-out: hLBAT IC50
T1 construct: expressed in transfected cells; kept under Geneticin selection
T1 sequence (Q14973 1-349): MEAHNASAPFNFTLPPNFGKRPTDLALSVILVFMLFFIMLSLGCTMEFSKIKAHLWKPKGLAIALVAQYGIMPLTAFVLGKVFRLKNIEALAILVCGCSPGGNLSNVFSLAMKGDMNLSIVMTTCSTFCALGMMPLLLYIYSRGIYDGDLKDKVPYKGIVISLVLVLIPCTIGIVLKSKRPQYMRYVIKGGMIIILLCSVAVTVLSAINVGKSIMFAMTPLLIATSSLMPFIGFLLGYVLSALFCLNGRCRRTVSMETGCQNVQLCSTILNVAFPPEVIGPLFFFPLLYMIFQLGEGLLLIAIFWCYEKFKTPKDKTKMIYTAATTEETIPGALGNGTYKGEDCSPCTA
Outline: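 LBAT-overexpressing cells, serum-free MEM-alpha, 20 min at 37° C with inhibitor (3-fold, 10-point) plus 0.3 μM 3H-taurocholic acid and cold taurocholic acid (7.5 μM human; 25 μM mouse), 0.2% DMSO. Stopped on ice, washed with 1 mM unlabelled taurocholate; uptake by scintillation counting.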

Human ASBT = target: T2, Human ASBT (Homo sapiens, UniProt Q12908); assay: ASBT (h/m) assay: 3H-taurocholic acid uptake in human ASBT-overexpressing cells; conditions: 0.25 μM 3H-taurocholic acid and 5 μM cold taurocholic acid, 20 minutes, read-out: hASBT IC50
T2 construct: expressed in transfected cells; kept under Puromycin selection
T2 sequence (Q12908 1-348): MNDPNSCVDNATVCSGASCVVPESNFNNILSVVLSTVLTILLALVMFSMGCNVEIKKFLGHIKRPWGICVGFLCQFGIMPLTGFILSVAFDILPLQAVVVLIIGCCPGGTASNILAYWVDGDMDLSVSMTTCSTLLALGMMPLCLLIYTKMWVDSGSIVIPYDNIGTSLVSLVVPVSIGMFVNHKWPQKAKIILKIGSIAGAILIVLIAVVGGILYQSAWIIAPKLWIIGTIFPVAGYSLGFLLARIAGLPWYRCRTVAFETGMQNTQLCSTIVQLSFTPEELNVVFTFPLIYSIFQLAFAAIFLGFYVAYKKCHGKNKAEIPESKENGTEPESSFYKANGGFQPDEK
Outline: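 ASBT-overexpressing cells, seeded 48 h earlier, took up 0.25 µM 3H-taurocholic acid plus 5 µM cold taurocholate for 20 min at 37 °C with inhibitor (10-point 3-fold series, top 10 µM, 0.2% DMSO). Ice stop, washes with cold 1 mM taurocholate in HEPES-HBSS pH 7.4, scintillation counting.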

HepaRG cells = assay: HepaRG-based assay: 3H-taurocholic acid uptake in differentiated HepaRG cells; conditions: 0.3 μM 3H-taurocholic acid and 7.5 μM cold taurocholic acid, 30 minutes
Protocol: HepaRG-Based Assay Protocol
A cryopreserved vial of differentiated HepaRG cells (Biopredic International HPR116080) was thawed in HepaRG Thawing/Plating/General Purpose Medium (Biopredic International ADD670C) supplemented with 200 mM Glutamax (Gibco 35050061) following the protocol provided by Biopredic International. 70,000 cells per well were seeded in 96-wells plate (Corning CLS3809) in 100 μL of HepaRG Thawing/Plating/General Purpose Medium supplemented with 200 mM Glutamax and incubated at 37° C. in 5% CO2 for 24 hours. Post incubation, the seeding media was replaced by HepaRG Maintenance/Metabolism Medium (Biopredic International ADD620C) and incubated for 6 days, with fresh HepaRG Maintenance/Metabolism Medium replenishment every 48 hours. After 7 days incubation post seeding, incubation media was decanted from the wells and cells were washed two times with 250 μL of William's E Basal Media (Gibco 12551032). After decanting William's E Basal Media each time, plates were tapped against paper towel to ensure maximum removal of residual media.
Incubation mix was prepared by adding test inhibitor dilutions (3-fold serial dilution in DMSO (Sigma D2650)) in William's E media (basal) containing 0.3 μM 3H-taurocholic acid (ARC ART-1368) and 7.5 μM cold taurocholic acid (Sigma T4009) (maintaining 0.2% final DMSO concentration). 50 μl of incubation mix containing test inhibitors was then added to the wells (in duplicate) and the plates were incubated for 30 minutes in 5% CO2 incubator at 37° C. After incubation, the reaction was stopped by keeping the plates on ice water mix for 2-3 minutes and then the incubation mix was aspirated completely from the wells. The wells were washed two times with 250 μL of chilled unlabelled 1 mM taurocholic acid dissolved in HEPES (Gibco 15630080)-buffered (10 mM) HBSS (Gibco 14175079) (pH 7.4). The plates were tapped against a paper towel after every wash to ensure maximum removal of blocking buffer.
100 μL of MicroScint-20 (PerkinElmer 6013621) was added to the wells and kept overnight at room temperature before reading the plates in TopCount NXT™ Microplate Scintillation and Luminescence Counter from PerkinElmer under 3H Test protocol (set at 120 seconds reading time per well, with normal plate orientation).
Preparation of Test Compound Dilutions
All test compounds were provided in powder form at room temperature. 10 mM DMSO stocks of the test compounds were prepared, aliquoted and stored at −20° C. From the 10 mM DMSO stock of the compounds, a 3-fold serial dilution in DMSO was prepared to get a total of 10 dilutions of the test compounds. 0.5 μL of this dilution in DMSO was added to 250 μL of FBS-free basal media containing 3H-taurocholic acid and cold taurocholic acid to prepare the incubation mixture.

Structure (SMILES): CCCCC1(CC)CN(c2ccccc2)c2cc(Cl)c(O/C=C/C(=O)O)cc2S(=O)(=O)C1 (racemic) [Example 49, (E)-3-((3-butyl-7-chloro-3-ethyl-1,1-dioxido-5-phenyl-2,3,4,5-tetrahydro-1,5-benzothiazepin-8-yl)oxy)acrylic Acid]
IC50 (Human LBAT): 94 nM
IC50 (Human ASBT): 220 nM
IC50 (HepaRG cells; Homo sapiens, HepaRG): 570 nM

Structure (SMILES): CCCCC1(CC)CN(c2ccccc2)c2cc(SC)c(O/C=C(\F)C(=O)O)cc2S(=O)(=O)N1 (racemic) [Example 84, (Z)-3-((3-butyl-3-ethyl-7-(methylthio)-1,1-dioxido-5-phenyl-2,3,4,5-tetrahydro-1,2,5-benzothiadiazepin-8-yl)oxy)-2-fluoroacrylic Acid]
IC50 (Human LBAT): 31 nM
IC50 (Human ASBT): 28 nM
IC50 (HepaRG cells; Homo sapiens, HepaRG): 559 nM

Structure (SMILES): CCCCC1(CC)CN(c2ccccc2)c2cc(I)c(O/C=C/C(=O)O)cc2S(=O)(=O)C1 (single isomer, unassigned) [Example 57, (E)-3-((3-butyl-3-ethyl-7-iodo-1,1-dioxido-5-phenyl-2,3,4,5-tetrahydro-1,5-benzothiazepin-8-yl)oxy)acrylic acid]
IC50 (Human LBAT): 137 nM
IC50 (Human ASBT): 361 nM
IC50 (HepaRG cells; Homo sapiens, HepaRG): 1160 nM

Structure (SMILES): CCCCC1(CC)CN(c2ccccc2)c2cc(I)c(O/C=C/C(=O)O)cc2S(=O)(=O)C1 (single isomer, unassigned) [Example 58, (E)-3-((3-butyl-3-ethyl-7-iodo-1,1-dioxido-5-phenyl-2,3,4,5-tetrahydro-1,5-benzothiazepin-8-yl)oxy)acrylic acid]
IC50 (Human LBAT): 84 nM
IC50 (Human ASBT): 24 nM
IC50 (HepaRG cells): 1500 nM

Structure (SMILES): CCCC[C@@]1(CC)CN(c2ccccc2)c2cc(SC)c(O/C=C/C(=O)O)cc2S(=O)(=O)N1 (single isomer, unassigned) [Example 77]
IC50 (Human LBAT): 297 nM
IC50 (Human ASBT): 24 nM
IC50 (HepaRG cells; Homo sapiens, HepaRG): 5330 nM

Structure (SMILES): CCCC[C@@]1(CC)CN(c2ccccc2)c2cc(SC)c(O/C=C(\F)C(=O)O)cc2S(=O)(=O)N1 (single isomer, unassigned) [Example 85]
IC50 (Human LBAT): 71 nM
IC50 (Human ASBT): 7 nM
IC50 (HepaRG cells; Homo sapiens, HepaRG): 1110 nM

Structure (SMILES): CCCCC1(CCCC)CN(c2ccc(N)cc2)c2cc(SC)c(O/C=C/C(=O)O)cc2S(=O)(=O)C1 [Example 2, (E)-3-((5-(4-aminophenyl)-3,3-dibutyl-7-(methylthio)-1,1-dioxido-2,3,4,5-tetrahydro-1,5-benzothiazepin-8-yl)oxy)acrylic Acid]
IC50 (Human LBAT): 1400 nM
IC50 (Human ASBT): 354 nM
IC50 (HepaRG cells; Homo sapiens, HepaRG): > 6670 nM

Structure (SMILES): CCCCC1(CCCC)CN(c2ccc(NC(=O)OC(C)(C)C)cc2)c2cc(SC)c(O/C=C/C(=O)O)cc2S(=O)(=O)C1 [Example 3, (E)-3-((5-(4-((tert-butoxycarbonyl)amino)phenyl)-3,3-dibutyl-7-(methylthio)-1,1-dioxido-2,3,4,5-tetrahydro-1,5-benzothiazepin-8-yl)oxy)acrylic Acid]
IC50 (Human LBAT): 177 nM
IC50 (Human ASBT): > 10000 nM
IC50 (HepaRG cells; Homo sapiens, HepaRG): 885 nM

Further compounds by falling IC50 (Human LBAT), results first:

IC50 (Human LBAT): 89 nM
IC50 (Human ASBT): 77 nM
IC50 (HepaRG cells; Homo sapiens, HepaRG): 339 nM
Structure (SMILES): CCCCC1(CC)CN(c2ccccc2)c2cc(Cl)c(O/C=C/C(=O)O)cc2S(=O)(=O)C1 (single isomer, unassigned) [Example 50, (E)-3-((3-butyl-7-chloro-3-ethyl-1,1-dioxido-5-phenyl-2,3,4,5-tetrahydro-1,5-benzothiazepin-8-yl)oxy)acrylic acid]

IC50 (Human LBAT): 70 nM
IC50 (Human ASBT): 2250 nM
IC50 (HepaRG cells; Homo sapiens, HepaRG): 1150 nM
Structure (SMILES): CCCCC1(CC)CN(c2ccccc2)c2cc(SC)c(O/C=C/C(=O)O)cc2S(=O)(=O)N1C (racemic) [Example 88, (E)-3-((3-butyl-3-ethyl-2-methyl-7-(methylthio)-1,1-dioxido-5-phenyl-2,3,4,5-tetrahydro-1,2,5-benzothiadiazepin-8-yl)oxy)acrylic Acid]

IC50 (Human LBAT): 68 nM
IC50 (Human ASBT): 6.5 nM
IC50 (HepaRG cells; Homo sapiens, HepaRG): > 2220 nM
Structure (SMILES): CCCC[C@@]1(CC)CN(c2ccccc2)c2cc(N(C)C)c(O/C=C(\F)C(=O)O)cc2S(=O)(=O)C1 (single isomer, unassigned) [Example 109]

IC50 (Human LBAT): 49 nM
IC50 (Human ASBT): 631 nM
IC50 (HepaRG cells; Homo sapiens, HepaRG): 1450 nM
Structure (SMILES): CCCC[C@]1(CC)CN(c2ccccc2)c2cc(SC)c(O/C=C(\F)C(=O)O)cc2S(=O)(=O)N1C (single isomer, unassigned) [Example 100]

IC50 (Human LBAT): 31 nM
IC50 (Human ASBT): 88 nM
IC50 (HepaRG cells; Homo sapiens, HepaRG): 527 nM
Structure (SMILES): CCCC[C@]1(CC)CN(c2ccccc2)c2cc(SC)c(O/C=C(\F)C(=O)O)cc2S(=O)(=O)N1 (single isomer, unassigned) [Example 86]

IC50 (Human LBAT): 28 nM
IC50 (Human ASBT): 524 nM
IC50 (HepaRG cells; Homo sapiens, HepaRG): 455 nM
Structure (SMILES): CCCC[C@]1(CC)CN(c2ccccc2)c2cc(Br)c(O/C=C(\F)C(=O)O)cc2S(=O)(=O)C1 (single isomer, unassigned) [Example 64]

IC50 (Human LBAT): 25 nM
IC50 (Human ASBT): 339 nM
IC50 (HepaRG cells; Homo sapiens, HepaRG): 362 nM
Structure (SMILES): CCCCC1(CC)CN(c2ccccc2)c2cc(Cl)c(O/C=C(\F)C(=O)O)cc2S(=O)(=O)C1 (single isomer, unassigned) [Example 47, (Z)-3-((3-butyl-7-chloro-3-ethyl-1,1-dioxido-5-phenyl-2,3,4,5-tetrahydro-1,5-benzothiazepin-8-yl)oxy)-2-fluoroacrylic acid]

IC50 (Human LBAT): 22 nM
IC50 (Human ASBT): 286 nM
IC50 (HepaRG cells; Homo sapiens, HepaRG): 671 nM
Structure (SMILES): CCCCC1(CC)CN(c2ccccc2)c2cc(SC)c(O/C=C(\F)C(=O)O)cc2S(=O)(=O)N1C (racemic) [Example 98, (Z)-3-((3-butyl-3-ethyl-2-methyl-7-(methylthio)-1,1-dioxido-5-phenyl-2,3,4,5-tetrahydro-1,2,5-benzothiadiazepin-8-yl)oxy)-2-fluoroacrylic Acid]

IC50 (Human LBAT): 20 nM
IC50 (Human ASBT): 27 nM
IC50 (HepaRG cells; Homo sapiens, HepaRG): 265 nM
Structure (SMILES): CCCC[C@@]1(CC)CN(c2ccccc2)c2cc(Br)c(O/C=C(\F)C(=O)O)cc2S(=O)(=O)C1 (single isomer, unassigned) [Example 65]

IC50 (Human LBAT): 10 nM
IC50 (Human ASBT): 35 nM
IC50 (HepaRG cells; Homo sapiens, HepaRG): 358 nM
Structure (SMILES): CCCCC1(CC)CN(c2ccccc2)c2cc(Br)c(O/C=C(\F)C(=O)O)cc2S(=O)(=O)C1 (racemic) [Example 63, (Z)-3-((7-bromo-3-butyl-3-ethyl-1,1-dioxido-5-phenyl-2,3,4,5-tetrahydro-1,5-benzothiazepin-8-yl)oxy)-2-fluoroacrylic Acid]

IC50 (Human LBAT): 10 nM
IC50 (Human ASBT): 220 nM
IC50 (HepaRG cells; Homo sapiens, HepaRG): 378 nM
Structure (SMILES): CCCCC1(CC)CN(c2ccccc2)c2cc(SC)c(O/C=C(\F)C(=O)O)cc2S(=O)(=O)C1 (single isomer, unassigned) [Example 42, (Z)-3-((3-butyl-3-ethyl-7-(methylthio)-1,1-dioxido-5-phenyl-2,3,4,5-tetrahydro-1,5-benzothiazepin-8-yl)oxy)-2-fluoroacrylic acid]
